Biological target: T1, IKBKE (IKK epsilon) (Homo sapiens, UniProt Q14164)
T1 construct: purchased Thermo Fisher Scientific (Life Technologies) SelectScreen
Test: SelectScreen Z'LYTE
Format: biochemical
Outline: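 NU5455 was profiled across the SelectScreen Broad panel of kinase activity and binding assays. Z'LYTE reactions such as CSF1R ran at apparent Km ATP, while the Adapta CAMK1 assay used ATP listed as 10. Values are given as percent.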

T1 sequence (Q14164 whole entry): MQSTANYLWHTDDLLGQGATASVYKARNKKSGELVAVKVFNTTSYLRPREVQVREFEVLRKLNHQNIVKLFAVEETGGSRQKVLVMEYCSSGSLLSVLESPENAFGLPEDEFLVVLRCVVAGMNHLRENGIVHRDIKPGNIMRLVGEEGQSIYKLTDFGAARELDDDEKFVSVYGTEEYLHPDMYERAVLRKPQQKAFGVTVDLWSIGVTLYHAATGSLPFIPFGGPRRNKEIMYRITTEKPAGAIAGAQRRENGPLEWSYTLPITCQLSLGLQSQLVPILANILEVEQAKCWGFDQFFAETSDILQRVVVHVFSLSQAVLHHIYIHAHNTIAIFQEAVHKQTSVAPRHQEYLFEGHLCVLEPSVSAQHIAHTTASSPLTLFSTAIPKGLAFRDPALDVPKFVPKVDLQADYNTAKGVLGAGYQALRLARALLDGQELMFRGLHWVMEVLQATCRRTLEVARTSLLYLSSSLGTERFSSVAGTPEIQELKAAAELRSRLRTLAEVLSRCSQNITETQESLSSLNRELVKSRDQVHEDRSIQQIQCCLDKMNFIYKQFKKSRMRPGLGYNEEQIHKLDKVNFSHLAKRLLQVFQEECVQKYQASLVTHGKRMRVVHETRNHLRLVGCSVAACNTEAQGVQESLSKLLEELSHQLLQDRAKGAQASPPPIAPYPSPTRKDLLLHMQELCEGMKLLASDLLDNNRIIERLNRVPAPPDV

CN(C(=O)CN1CCOCC1)c1ccc2sc3c(-c4cccc5c(=O)cc(N6CC7CCC(C6)O7)oc45)cccc3c2c1 [NU5455]
inhibition at 1 µM: -0.7%

Reference: article PMC6934184, “Selective DNA-PKcs inhibition extends the therapeutic index of localized radiotherapy and chemotherapy” (The Journal of Clinical Investigation, 2019)
